From US7754692B2, “Arginyl-glutamine dipeptide for treatment of pathological vascular proliferation” (University of Florida Research Foundation, Inc., priority 2003, dated 2010)
Peptide text beside a SMILES is read from it.

How the values were obtained:
[1] = tested on: pre-retinal neovascularization; experiment: Neonatal mouse hyperoxia model of retinopathy of prematurity, counting pre-retinal neovascularization on stained sections; type: in vivo, mice
Method: Neonatal mice were exposed to a period of hyperoxia to induce retinal angiogenesis that mimics retinopathy of prematurity. An Arginyl-glutamine dipeptide was administered intraperitoneally twice daily during the period when neovascularization occurs in this model, days 12 through 17.
On day 17 the animals are sacrificed and degree of angiogenesis was quantified by counting pre-retinal neovascularization on stained sections from treated and untreated animals.

retinal cell culture = experiment: Retinal cell culture model, transepithelial resistance (TER); type: cell-based
[2] = tested on: vascular endothelial growth factor (VEGF); experiment: Retinal cell culture model, vascular endothelial growth factor (VEGF); type: cell-based

SMILES: N=C(N)NCCC[C@H](N)C(=O)N[C@@H](CCC(N)=O)C(=O)O [argininyl-glutamine, arginyl-glutamine] (H-Arg-Gln-OH)
- reduction in preretinal neovascularization ([1]; neonatal mice after hyperoxia, intraperitoneally twice daily days 12 through 17, read on day 17, combined data from two experiments (FIG. 1)): 80%
- nuclei (associated with retinopathy) compared to the vehicle ([1]; repeat experiment with different doses of the dipeptide after oxygen stress challenge, FIG. 2): clear decrease
- transepithelial resistance (TER) (retinal cell culture): increased
- vascular endothelial growth factor (VEGF) [2]: decreased
